Data set [1] has as its system VSV-G pseudotyped HIV particles (WT). Description: microbe, parasite or virus in culture. Type of data set: cell-based, HIV-1. To be noted: Human immunodeficiency virus 1, HOS, read-out: Antiviral IC50 ± SD (EC50), WT.
The subject of data set [2] is VSV-G pseudotyped HIV particles (IN Y143R). Type of data set: cell-based, HIV-1. Conditions: read-out: Antiviral IC50 ± SD (EC50), Y143R.
The nature of data set [3]: in vitro. Conditions: human.

With `Cc1nnc(C(=O)NC(C)(C)c2nc(C(=O)NCc3ccc(F)cc3)c(O)c(=O)n2C)o1` [RAL, raltegravir], the EC50 stood at 4 ± 2 nM in data set [1] and 210 ± 10 nM in data set [2]. Further, the CC50 in data set [3] was over 100 µM.

Usually EC50 stands for the concentration needed to bring the measured effect to its halfway point.
